In paper PMC10518255, “A first-in-class pan-lysyl oxidase inhibitor impairs stromal remodeling and enhances gemcitabine response and survival in pancreatic cancer” (Nature Cancer, 2023):
Where “and” joins values, the source holds several entries; their conditions need not be identical. Equal values may be shown once.

Columns and labels:
TKCC10 human PDX tumors = test: TKCC10 human model, bulk modulus by unconfined compression (Extended Data Fig. 5e); format: in vivo, mouse; parameters: key to Bulk modulus (stiffness) by unconfined compression testing: bulk elastic modulus in kPa; conditions: for Bulk modulus (stiffness) by unconfined compression testing: Extended Data 5E, endpoint human PDX tumours, individual animals
Procedure: (§1) Unconfined compression of in vivo tissue samples was carried out on 2–3-mm cross-sectional slices using a TA Instruments Dynamic Hybrid Rheometer (DHR-3, TA Instruments). Tissue samples were placed between upper and lower parallel plate geometries. A constant linear compressive rate of 5 µm s^−1 was applied to the samples and axial force (N) and gap (mm) were collected every 0.01 s. Data were processed and a stress–strain curve for each replicate was obtained. Bulk elastic modulus (kPa) was obtained as the gradient of the linear region of the stress–strain curve corrected for cross-sectional area of sample. Data points represent individual biological replicates.
Subcutaneous PDX studies were performed by implanting early passage PDX pieces (~4 mm^3) or TKCC10 CCs (1.5 × 10^6 cells per mouse in 100 μl PBS/Matrigel 1:1) into female (PDX) or male (TKCC10) 8-week-old immunocompromised nude Balb/c-Fox1nuAusb mice subcutaneously on the left flank. For the duration of the study, mice were kept in conventional caging with environmental enrichment, access to standard chow, water ad libitum and 12-h light–dark cycle at ambient temperature and humidity. […] Tumor size was monitored every second day by calipers. Tumor volume was calculated using the formula (length × width^2)/2. […]
Extended Data Fig. 5 PXS-5505 in combination with gemcitabine in vivo. a. […] Signal is defined as the enzyme activity in the aorta, while noise is measured in the presence of a high concentration (300 µM) BAPN to abolish any lysyl oxidase family activity. […] FITC-dextran (molecular weight: 10 kDa) signal quantification from KPC tumor end point from each treatment group (vehicle n = 3 biologically independent animals, PXS-5505 n = 5 biologically independent animals, Gem n = 5 biologically independent animals, PXS-5505 + Gem n = 5 biologically independent animals). […] P-values determined by Welchs t-test. […] Quantification of red birefringent (mature) collagen fibers from human PDXs at end point after 3 cycles of treatment, treated as indicated. […] P values determined by Welchs t-test. g. […]

KPC PDAC tumors = test: Bulk modulus (stiffness) by unconfined compression testing of end-point KPC tumors; format: in vivo, mouse; parameters: key to Bulk modulus (stiffness) by unconfined compression testing: bulk elastic modulus in kPa; conditions: for tumor bulk modulus (stiffness): end-point KPC tumors; for Bulk modulus (stiffness) by unconfined compression testing: endpoint PDAC tumours, individual tumours
Procedure: Fig. 4 PXS-5505 administered in a KPC in vivo survival study. a, Schematic of the KPC in vivo survival study. Presence of a primary tumor in KPC mice was confirmed by two independent researchers (positive diagnosis) before commencement of daily treatment (Tx) on one of four treatment arms as follows: vehicle, 0.9% saline; Gem, twice-weekly gemcitabine (100 mg kg^−1 i.p.); PXS-5505, daily PXS-5505 at 20 mg kg^−1 i.p.; and PXS-5505 + Gem, daily PXS-5505 at 20 mg kg^−1 i.p. + twice-weekly gemcitabine (100 mg kg^−1 i.p.). b, Table of median survival (since diagnosis/commencement of treatment) across the four treatment groups (n = 30 biologically independent animals (vehicle), n = 31 biologically independent animals (Gem), n = 36 biologically independent animals (PXS-5505), n = 46 biologically independent animals (PXS-5505 + Gem)). c, Kaplan–Meier curves for overall survival across treatment arms (n = 30 biologically independent animals (vehicle), n = 31 biologically independent animals (Gem), n = 36 biologically independent animals (PXS-5505), n = 46 biologically independent animals (PXS-5505 + Gem)). P values determined by log-rank (Mantel–Cox) test. d, Representative maximum intensity projections of SHG multiphoton imaging for tumors from each treatment group (n = 1 FOV taken from one biologically independent animal per group) at end point (scale bars, 100 μm) and quantification of SHG peak signal intensity (n = 5 biologically independent animals per group and five FOV per animal). Data are mean ± s.d. […] Quantification of metastases (n = 18 biologically independent animals (vehicle), n = 18 biologically independent animals (Gem), n = 17 biologically independent animals (PXS-5505), n = 15 biologically independent animals (PXS-5505 + Gem)). Data are mean ± s.d.
as §1

Row | SMILES | Bulk modulus (stiffness) by unconfined compression testing (TKCC10 human PDX tumors) | tumor bulk modulus (stiffness) (KPC PDAC tumors) | Bulk modulus (stiffness) by unconfined compression testing (KPC PDAC tumors) | tumor bulk stiffness (TKCC10 human PDX tumors; TKCC10 model, three rounds of therapy)
1 | Cl.Cl.NC/C=C(\F)CS(=O)(=O)c1cccc2cccnc12.O [PXS-5505, (Z)-3-fluoro-4-(quinolin-8-ylsulfonyl)but-2-en-1-amine dihydrochloride monohydrate] | 8.16 and 16.78 and 14.19 and 5.55 and 12.49 | moderate reduction in stiffness | 1.01 and 4.478 and 8.389 and 5.347 and 1.487 | –
2 | Nc1ccn([C@@H]2O[C@H](CO)[C@@H](O)C2(F)F)c(=O)n1 [Gem, gemcitabine] | 110.51 and 99.1 and 103.39 and 48.75 and 58.11 | 20.0 kPa | 26.381 and 11.231 and 14.142 and 18.28 and 20.014 | significant increase in tumor bulk stiffness
